According to ChEMBL document CHEMBL4334438, “Discovery of novel glycogen synthase kinase-3α inhibitors: Structure-based virtual screening, preliminary SAR and biological evaluation for treatment of acute myeloid leukemia” (Eur J Med Chem, 2019):
Active and inactive are the calls of the source. The rule behind the calls is not given here.

Legend:
[1] = target: T1, Glycogen synthase kinase-3 beta (Homo sapiens, UniProt P49841); assay: Inhibition of human GSK-3beta by mobility shift micro-fluidic assay
GSK-3beta (H350L mutant) = GSK-3beta (H350L mutant) (Homo sapiens, UniProt P49841, H350L); assay: Inhibition of human GSK-3beta H350L mutant (2 to end residues) at 10 uM using phospho GS2 peptide as substrate after 40 mins by [gamma-33ATP] radiometric assay relative to control; details: human GSK-3beta H350L mutant enzyme (residues 2 to end), probe phospho GS2 peptide
[2] = target: T2, Glycogen synthase kinase-3 alpha (Homo sapiens, UniProt P49840); assay: Inhibition of human GSK-3alpha S449A mutant (2 to end residues) using phospho GS2 peptide as substrate after 40 mins in presence of [gamma-33ATP] by scintillation counting method
[3] = target: Glycogen synthase kinase-3 beta (Homo sapiens, UniProt P49841, H350L); assay: Inhibition of human GSK-3beta H350L mutant (2 to end residues) at 10 uM using phospho GS2 peptide as substrate after 40 mins by [gamma-33ATP] radiometric assay
Homo sapiens = species: Homo sapiens; assay: Selectivity index, ratio of IC50 for inhibition of human GSK-3beta H350L mutant (2 to end residues) to IC50 for inhibition of human GSK-3alpha S449A mutant (2 to end residues)
[4] = test system: Glycogen synthase kinase-3 alpha (Homo sapiens), P49840 [UNDEFINED MUTATION]; assay: Inhibition of human GSK-3alpha S449A mutant (2 to end residues) at 10 uM using phospho GS2 peptide as substrate after 40 mins in presence of [gamma-33ATP] by scintillation counting method relative to control
HL-60 [5] = assay: Induction of monocytic differentiation in human HL60 cells assessed as increase in CD14-FITC positive cells at 30 uM after 6 days by flow cytometry analysis; format: functional, cell-based
[6] = target: T1, Glycogen synthase kinase-3 beta; assay: Inhibition of human GSK-3beta using YRRAAVPPSPSLSRHSSPHQ(pS)EDEEE as substrate measured in presence of [gamma-33P]ATP by radiometric assay
NB-4 [7] = assay: Induction of monocytic differentiation in human NB4 cells assessed as increase in CD14 positive cells at 30 uM after 6 days by FITC staining based flow cytometry analysis; format: functional, cell-based
[8] = Activation of wnt/beta-catenin signalling pathway in human HL60 cells assessed as stabilization of beta-catenin at 30 uM after 24 hrs by Western blot analysis; format: cell-based
NB-4 [9] = assay: Induction of monocytic differentiation in human NB4 cells assessed as increase in CD11b-APC-Cy7 positive cells at 30 uM after 6 days by flow cytometry analysis; format: functional, cell-based
NB-4 [10] = assay: Induction of monocytic differentiation in human NB4 cells assessed as increase in CD11c-APC positive cells at 30 uM after 6 days by flow cytometry analysis; format: functional, cell-based
HL-60 [11] = assay: Induction of monocytic differentiation in human HL60 cells assessed as increase in CD11b-APC-Cy7 positive cells at 30 uM after 6 days by flow cytometry analysis; format: functional, cell-based
HL-60 [12] = assay: Antiproliferative activity against human HL60 cells assessed as reduction in viability at 1 to 30 uM after 3 days by SRB assay; format: functional, cell-based
HL-60 [13] = assay: Induction of monocytic differentiation in human HL60 monocytic assessed as increase in CD11c-APC positive cells at 30 uM after 6 days by flow cytometry analysis; format: functional, cell-based
NB-4 [14] = assay: Antiproliferative activity against human NB4 cells assessed as reduction in viability at 1 to 30 uM after 3 days by SRB assay; format: functional, cell-based
[15] = target: T2, Glycogen synthase kinase-3 alpha; assay: Inhibition of human GSK-3alpha using YRRAAVPPSPSLSRHSSPHQ(pS)EDEEE as substrate measured in presence of [gamma-33P]ATP by radiometric assay
[16] = Activation of wnt/beta-catenin signalling pathway in human NB4 cells assessed as stabilization of beta-catenin at 30 uM after 24 hrs by Western blot analysis; format: cell-based
NB-4 [17] = assay: Induction of granulocytic differentiation in human NB4 cells assessed as increase in CD11b-APC-Cy7 positive cells at 10 to 30 uM after 6 days by flow cytometry analysis; format: functional, cell-based
NB-4 [18] = assay: Inhibition of colony formation in human NB4 cells at 30 uM preincubated for 72 hrs followed by compound washout and measured after 7 to 10 days; format: functional, cell-based
HL-60 [19] = assay: Induction of granulocytic differentiation in human HL60 cells assessed as increase in CD11b-APC-Cy7 positive cells at 10 to 30 uM after 6 days by flow cytometry analysis; format: functional, cell-based
NB-4 [20] = assay: Induction of granulocytic differentiation in human NB4 cells assessed as increase in CD11c-APC positive cells at 10 to 30 uM after 6 days by flow cytometry analysis; format: functional, cell-based
HL-60 [21] = assay: Inhibition of colony formation in human HL60 cells at 30 uM preincubated for 72 hrs followed by compound washout and measured after 7 to 10 days; format: functional, cell-based
HL-60 [22] = assay: Induction of granulocytic differentiation in human HL60 granulocytic assessed as increase in CD11c-APC positive cells at 10 to 30 uM after 6 days by flow cytometry analysis; format: functional, cell-based
HL-60 [23] = assay: Induction of granulocytic differentiation in human HL60 cells assessed as increase in CD14-FITC positive cells at 10 to 30 uM after 6 days by flow cytometry analysis; format: functional, cell-based
NB-4 [24] = assay: Induction of granulocytic differentiation in human NB4 cells assessed as increase in CD14 positive cells at 10 to 30 uM after 6 days by FITC staining based flow cytometry analysis; format: functional, cell-based

T2 sequence (P49840 whole entry): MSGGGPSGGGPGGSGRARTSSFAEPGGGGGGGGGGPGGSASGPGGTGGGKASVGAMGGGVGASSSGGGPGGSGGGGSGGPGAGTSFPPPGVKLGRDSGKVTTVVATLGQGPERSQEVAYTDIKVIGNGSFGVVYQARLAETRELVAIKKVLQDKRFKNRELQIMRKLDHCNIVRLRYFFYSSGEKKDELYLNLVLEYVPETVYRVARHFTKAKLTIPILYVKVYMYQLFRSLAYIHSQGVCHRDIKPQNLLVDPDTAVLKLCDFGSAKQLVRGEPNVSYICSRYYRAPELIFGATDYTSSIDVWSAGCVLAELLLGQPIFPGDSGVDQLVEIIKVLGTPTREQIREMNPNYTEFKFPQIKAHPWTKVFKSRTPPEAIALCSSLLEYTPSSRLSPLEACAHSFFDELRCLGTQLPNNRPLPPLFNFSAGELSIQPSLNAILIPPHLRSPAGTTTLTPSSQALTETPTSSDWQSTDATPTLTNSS
Chain of Glycogen synthase kinase-3 alpha (Homo sapiens), P49840 [UNDEFINED MUTATION] (P49840 whole entry, looked up, stated change not applied): as the sequence (P49840 whole entry) above
Chain of Glycogen synthase kinase-3 beta (Homo sapiens, UniProt P49841, H350L) (P49841 whole entry, looked up, stated change not applied): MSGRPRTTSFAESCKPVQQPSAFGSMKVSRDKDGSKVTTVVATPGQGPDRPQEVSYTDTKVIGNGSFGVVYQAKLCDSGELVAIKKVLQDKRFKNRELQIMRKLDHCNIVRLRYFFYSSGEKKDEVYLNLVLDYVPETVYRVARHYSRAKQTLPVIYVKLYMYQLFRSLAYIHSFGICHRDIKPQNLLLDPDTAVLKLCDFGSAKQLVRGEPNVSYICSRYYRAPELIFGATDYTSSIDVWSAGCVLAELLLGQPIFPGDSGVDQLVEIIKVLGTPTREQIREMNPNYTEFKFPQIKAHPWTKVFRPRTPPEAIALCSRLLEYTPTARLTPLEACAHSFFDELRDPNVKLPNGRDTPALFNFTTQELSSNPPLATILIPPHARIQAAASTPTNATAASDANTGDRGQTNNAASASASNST
Chain of GSK-3beta (H350L mutant) (P49841 whole entry, looked up, stated change not applied, the tested form may be a part): as the sequence (P49841 whole entry, looked up, stated change not applied) above
T1 sequence (P49841 whole entry, the tested form may be a part): as the sequence (P49841 whole entry, looked up, stated change not applied) above

Compound: CC[C@@]1(c2ccccc2)C2=C(CC(C)(C)CC2=O)Nc2n[nH]cc21
- IC50 [1]: 515 nM

Compound: Cc1ccc(-c2ccc(/C=C3/NC(=S)NC3=O)o2)c(Br)c1
- inhibition at 40 min, 10 µM (GSK-3beta (H350L mutant)): 62%
- IC50 [2]: 440 nM
- IC50 [3]: 862 nM
- Ratio IC50 (Homo sapiens): 1.95
- inhibition [4]: 65 to 90%

Compound: N=C1NC(=O)/C(=C\c2ccc(-c3ccccc3Cl)o2)S1
- inhibition at 40 min, 10 µM (GSK-3beta (H350L mutant)): 95%
- IC50 [2]: 242 nM
- IC50 [3]: 565 nM
- inhibition [4]: 95%

Compound: N=C1NC(=O)/C(=C\c2ccc(-c3cc([N+](=O)[O-])ccc3Cl)o2)S1
- inhibition at 40 min, 10 µM (GSK-3beta (H350L mutant)): 65%
- IC50 [2]: 2680 nM
- IC50 [3]: 1760 nM
- inhibition [4]: 71%

Compound: CN1C(=N)NC(=O)/C1=C\c1ccc(-c2ccc(F)cc2)o1
- inhibition at 40 min, 10 µM (GSK-3beta (H350L mutant)): 78%
- IC50 [2]: 1340 nM
- IC50 [3]: 1890 nM
- inhibition [4]: 81%

Compound: c1ccc(-c2noc(CSc3nnc(-c4ccncc4)o3)n2)cc1
- Activity (HL-60 [5]): Active
- IC50 [6]: 521 nM
- Activity (NB-4 [7]): Active
- Activity [8]: Active
- Activity (NB-4 [9]): Active
- Activity (NB-4 [10]): Active
- Activity (HL-60 [11]): Active
- Activity (HL-60 [12]): Active
- Activity (HL-60 [13]): Active
- Activity (NB-4 [14]): Active
- IC50 [15]: 451 nM
- Activity [16]: Active

Compound: O=C1NC(=O)C(c2cnc3ccccn23)=C1c1cn2c3c(cc(F)cc13)CN(C(=O)N1CCCCC1)CC2 [LY-2090314]
- inhibition at 40 min, 10 µM (GSK-3beta (H350L mutant)): 97%
- IC50 [2]: 1.02 nM
- IC50 [3]: 1.29 nM
- inhibition [4]: 99%

Compound: CC(=O)/N=C1/NC(=O)/C(=C\c2ccc(-c3ccc(C(=O)O)cc3)o2)S1
- inhibition at 40 min, 10 µM (GSK-3beta (H350L mutant)): 72%
- IC50 [2]: 557 nM
- IC50 [3]: 3720 nM
- inhibition [4]: 86%

Compound: O=C1NC(=S)N/C1=C/c1ccc(-c2ccccc2Cl)o1
- inhibition at 40 min, 10 µM (GSK-3beta (H350L mutant)): 86%
- IC50 [2]: 609 nM
- IC50 [3]: 917 nM
- inhibition [4]: 84%

Compound: N=C1NC(=O)/C(=C\c2ccc(-c3ccc(Cl)c(Cl)c3)o2)S1
- inhibition at 40 min, 10 µM (GSK-3beta (H350L mutant)): 75%
- IC50 [2]: 300 nM
- IC50 [3]: 576 nM
- Ratio IC50 (Homo sapiens): 1.9
- inhibition [4]: 80 to 81%

Compound: O=C1NC(=S)N/C1=C/c1ccc(-c2ccc([N+](=O)[O-])cc2)o1
- inhibition at 40 min, 10 µM (GSK-3beta (H350L mutant)): 72%
- IC50 [2]: 412 nM
- IC50 [3]: 584 nM
- inhibition [4]: 88%

Compound: N=C1NC(=O)/C(=C\c2ccc(-c3cccc(Cl)c3)o2)S1
- inhibition at 40 min, 10 µM (GSK-3beta (H350L mutant)): 88%
- IC50 [2]: 282 nM
- IC50 [3]: 767 nM
- inhibition [4]: 94%

Compound: N=C1NC(=O)/C(=C\c2ccc(-c3ccc(Cl)cc3Cl)o2)S1
- inhibition at 40 min, 10 µM (GSK-3beta (H350L mutant)): 93%
- IC50 [2]: 1880 nM
- IC50 [3]: 1200 nM
- inhibition [4]: 82%

Compound: CC1=C(/C=C/C(C)=C/C=C/C(C)=C/C(=O)O)C(C)(C)CCC1
- Activity (NB-4 [17]): Active
- inhibition (NB-4 [18]): Active
- Activity (HL-60 [12]): Active
- Activity (HL-60 [19]): Active
- Activity (NB-4 [20]): Active
- Activity (NB-4 [14]): Active
- inhibition (HL-60 [21]): Active
- Activity (HL-60 [22]): Active
- Activity (HL-60 [23]): Active
- Activity (NB-4 [24]): Active

Compound: Cc1ccc(-c2ccc(/C=C3/SC(=N)NC3=O)o2)c([N+](=O)[O-])c1
- inhibition at 40 min, 10 µM (GSK-3beta (H350L mutant)): 89%
- IC50 [2]: 162 nM
- IC50 [3]: 320 nM
- inhibition [4]: 85%

Compound: O=C1NC(=S)N/C1=C/c1ccc(-c2ccc(C(=O)O)cc2)o1
- inhibition at 40 min, 10 µM (GSK-3beta (H350L mutant)): 91%
- IC50 [2]: 309 nM
- IC50 [3]: 743 nM
- inhibition [4]: 97%
